Test results published in ChEMBL document CHEMBL1201862, “PubChem BioAssay data set” (2004).
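Cultured in 96-well plates, cells were exposed to test compound for 48 hours across five concentrations. At the GI50, growth is halved.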 Activity calls are given as the source filed them. Rule as the data show it: active = GI50 up to about 1.1 µM and inactive = higher.

Experiments:
Assay in all cases: growth of human tumour cells (NCI), 48 h
[1] = system: RPMI-8226
[2] = system: NCI-H522
[3] = system: TK-10
[4] = system: SK-MEL-5
[5] = system: KM12
[6] = system: Malme-3M
[7] = system: DU-145
[8] = system: LXFL 529
[9] = system: EKVX
[10] = system: HCT-116
[11] = system: 786-0
[12] = system: SF-268
[13] = system: UACC-62
[14] = system: UO-31
[15] = system: A498
[16] = system: HOP-62
[17] = system: T47D

## Cc1ccc(S(=O)(=O)N/N=C/c2oc(-c3cccc([N+](=O)[O-])c3)c(-c3cccc([N+](=O)[O-])c3)c2[N+](=O)[O-])cc1
[1]
  GI50: 24 µM (inactive)
[2]
  GI50: 15.1 µM (inactive)
[3]
  GI50: > 100 µM (inactive)
[4]
  GI50: 73.1 µM (inactive)
[5]
  GI50: 36 µM (inactive)
[6]
  GI50: > 100 µM (inactive)
[7]
  GI50: > 100 µM (inactive)
[8]
  GI50: 36.7 µM (inactive)
[9]
  GI50: > 100 µM (inactive)
[10]
  GI50: 32.4 µM (inactive)
[11]
  GI50: 60.7 µM (inactive)
[12]
  GI50: 21.2 µM (inactive)
[13]
  GI50: 17.8 µM (inactive)
[14]
  GI50: 16.3 µM (inactive)
[15]
  GI50: > 100 µM (inactive)

## CCOC(OCC)C(CC)[Se]c1ccccc1[N+](=O)[O-] (stereo unspecified)
[1]
  GI50: 3.44 µM (inactive)
[2]
  GI50: 1.72 µM (inactive)
[3]
  GI50: 8.09 µM (inactive)
[4]
  GI50: 2.42 µM (inactive)
[5]
  GI50: 3.06 µM (inactive)
[6]
  GI50: 7.28 µM (inactive)
[16]
  GI50: 3.08 µM (inactive)
[7]
  GI50: 3.95 µM (inactive)
[8]
  GI50: 4.39 µM (inactive)
[17]
  GI50: 9.06 µM (inactive)
[9]
  GI50: 5.7 µM (inactive)
[10]
  GI50: 3.6 µM (inactive)
[11]
  GI50: 3.41 µM (inactive)
[12]
  GI50: 8.04 µM (inactive)
[13]
  GI50: 2.44 µM (inactive)
[14]
  GI50: 7.43 µM (inactive)
[15]
  GI50: 2.17 µM (inactive)

## COC(=O)C1=C(C(=O)OC)C23CC4CCC2(C(=O)C1O3)C4(C)C (stereo unspecified)
[1]
  GI50: 34.1 µM (inactive)
[2]
  GI50: 22 µM (inactive)
[3]
  GI50: > 100 µM (inactive)
[4]
  GI50: > 100 µM (inactive)
[5]
  GI50: > 100 µM (inactive)
[6]
  GI50: > 100 µM (inactive)
[7]
  GI50: > 100 µM (inactive)
[8]
  GI50: > 100 µM (inactive)
[10]
  GI50: 51.8 µM (inactive)
[11]
  GI50: > 100 µM (inactive)
[12]
  GI50: 94.4 µM (inactive)
[13]
  GI50: 73.1 µM (inactive)
[14]
  GI50: > 100 µM (inactive)
[15]
  GI50: > 100 µM (inactive)

## O=C1C2=C(C(c3ccccc3)=C1c1ccccc1)c1ccccc1C1(c3ccccc3)C2=C(O)C(c2ccccc2)=C1c1ccccc1 (stereo unspecified)
[1]
  GI50: > 100 µM (inactive)
[2]
  GI50: > 100 µM (inactive)
[3]
  GI50: > 100 µM (inactive)
[4]
  GI50: > 100 µM (inactive)
[5]
  GI50: > 100 µM (inactive)
[6]
  GI50: > 100 µM (inactive)
[16]
  GI50: > 100 µM (inactive)
[8]
  GI50: > 100 µM (inactive)
[9]
  GI50: > 100 µM (inactive)
[10]
  GI50: > 100 µM (inactive)
[11]
  GI50: > 100 µM (inactive)
[12]
  GI50: > 100 µM (inactive)
[13]
  GI50: > 100 µM (inactive)
[14]
  GI50: > 100 µM (inactive)
[15]
  GI50: > 100 µM (inactive)

## COC(=O)C1CC2(CC3=C1CCCC3)OCCO2 (stereo unspecified)
[1]
  GI50: > 100 µM (inactive)
[2]
  GI50: > 100 µM (inactive)
[3]
  GI50: > 100 µM (inactive)
[4]
  GI50: > 100 µM (inactive)
[5]
  GI50: > 100 µM (inactive)
[6]
  GI50: > 100 µM (inactive)
[16]
  GI50: > 100 µM (inactive)
[8]
  GI50: > 100 µM (inactive)
[9]
  GI50: > 100 µM (inactive)
[10]
  GI50: > 100 µM (inactive)
[11]
  GI50: > 100 µM (inactive)
[12]
  GI50: > 100 µM (inactive)
[13]
  GI50: > 100 µM (inactive)
[14]
  GI50: > 100 µM (inactive)
[15]
  GI50: > 100 µM (inactive)

## CN(C)CC/C(=N\Nc1ccc([N+](=O)[O-])cc1)c1ccccc1
[1]
  GI50: 11 µM (inactive)
[2]
  GI50: 13.9 µM (inactive)
[3]
  GI50: 4.14 µM (inactive)
[4]
  GI50: 14.5 µM (inactive)
[5]
  GI50: 9.31 µM (inactive)
[6]
  GI50: 19.4 µM (inactive)
[16]
  GI50: 14.2 µM (inactive)
[8]
  GI50: 5.83 µM (inactive)
[9]
  GI50: 14.3 µM (inactive)
[10]
  GI50: 11.7 µM (inactive)
[11]
  GI50: 12.6 µM (inactive)
[12]
  GI50: 7.94 µM (inactive)
[13]
  GI50: 12.9 µM (inactive)
[14]
  GI50: 2.1 µM (inactive)
[15]
  GI50: 13.2 µM (inactive)

## O=C1Oc2cc3c(c4cccc1c24)OCN(c1ccc(Cl)cc1)C3
[1]
  GI50: 7.14 µM (inactive)
[2]
  GI50: 15.2 µM (inactive)
[3]
  GI50: > 100 µM (inactive)
[4]
  GI50: 1.37 µM (inactive)
[5]
  GI50: > 44.5 µM (inactive)
[6]
  GI50: 26.4 µM (inactive)
[16]
  GI50: 4.32 µM (inactive)
[8]
  GI50: 0.622 µM (active)
[9]
  GI50: > 58.2 µM (inactive)
[10]
  GI50: 11.3 µM (inactive)
[11]
  GI50: 14.3 µM (inactive)
[12]
  GI50: 23.9 µM (inactive)
[13]
  GI50: 4.79 µM (inactive)
[14]
  GI50: 3.03 µM (inactive)
[15]
  GI50: > 100 µM (inactive)
